Measurements: article PMC7280531, “A PROTAC peptide induces durable β-catenin degradation and suppresses Wnt-dependent intestinal cancer” (Cell Discovery, 2020)
Where a SMILES comes first, the peptide text is derived from it. Bridges are numbered along the chain shown (N, C = ends). [ ]: non-standard residue; d: D form. S5 = C=CCCC[C@](C)(N)C(=O)O; Ahx = NCCCCCC(=O)O

What was measured:
intestinal tumors = assay: Intestinal tumors in APC^min/+ mice
Description: Because APC^min/+ mice can develop intestinal tumors around 10 weeks-old[26], the 11 weeks-old APC^min/+ mice were intraperitoneally injected with 30 mg/kg vehicle DMSO or peptides at every other day for 14 days. Then the mice were sacrificed for analysis of intestinal tumors.
Tumor number of the whole intestinal tract was analyzed in the lower panel.

β-catenin [1] = assay: β-catenin immunoblotting in colorectal cancer cells (HCT116, SW480, LoVo); format: cell-based; details: for β-catenin protein level, MSAB versus xStAx-VHLL: 50 μM xStAx-VHLL
Description: Relative
β-catenin protein level was quantified with ImageJ and normalized to GAPDH. Data […]
(b) LoVo cells were treated with 50 μM xStAx (xS), 50 μM
immunoblotting. (c, d) LoVo (c) and SW480 (d) cells were treated with different

LoVo cells [2] = assay: Tumor formation in nude mice from pretreated LoVo cells; format: in vivo, BALB/C nude mice
Description: Next, to examine the influence of the peptides on tumor formation, 3 × 10^6 LoVo cells were pretreated with each peptide at 50 μM for 24 h, followed by subcutaneous injection into BALB/C nude mice. After 3 weeks when tumors were visible, the mice were sacrificed for comparison of subcutaneous tumors among different groups.
LoVo cells cultured were pretreated with DMSO pr peptides (50 μM) for 24 h. Then the cells were digested with trypsin and centrifuge (3 min at 300–400 g). Cell pellets were washed with cold PBS three times and the cell number was counted. The BALB/C nude mice were subcutaneously injected with 3 × 10^6 cells. Three weeks later, the nude mice were sacrificed and dissected for tumors. Tumor weight was quantified.

APC^−/− organoids = assay: APC^−/− mouse intestinal organoid culture; format: cell-based
β-catenin [3] = target: T1, β-catenin (Homo sapiens, UniProt P35222); assay: β-catenin immunoblotting / immunoprecipitation in HEK293T cells
T1 sequence (P35222 1-781): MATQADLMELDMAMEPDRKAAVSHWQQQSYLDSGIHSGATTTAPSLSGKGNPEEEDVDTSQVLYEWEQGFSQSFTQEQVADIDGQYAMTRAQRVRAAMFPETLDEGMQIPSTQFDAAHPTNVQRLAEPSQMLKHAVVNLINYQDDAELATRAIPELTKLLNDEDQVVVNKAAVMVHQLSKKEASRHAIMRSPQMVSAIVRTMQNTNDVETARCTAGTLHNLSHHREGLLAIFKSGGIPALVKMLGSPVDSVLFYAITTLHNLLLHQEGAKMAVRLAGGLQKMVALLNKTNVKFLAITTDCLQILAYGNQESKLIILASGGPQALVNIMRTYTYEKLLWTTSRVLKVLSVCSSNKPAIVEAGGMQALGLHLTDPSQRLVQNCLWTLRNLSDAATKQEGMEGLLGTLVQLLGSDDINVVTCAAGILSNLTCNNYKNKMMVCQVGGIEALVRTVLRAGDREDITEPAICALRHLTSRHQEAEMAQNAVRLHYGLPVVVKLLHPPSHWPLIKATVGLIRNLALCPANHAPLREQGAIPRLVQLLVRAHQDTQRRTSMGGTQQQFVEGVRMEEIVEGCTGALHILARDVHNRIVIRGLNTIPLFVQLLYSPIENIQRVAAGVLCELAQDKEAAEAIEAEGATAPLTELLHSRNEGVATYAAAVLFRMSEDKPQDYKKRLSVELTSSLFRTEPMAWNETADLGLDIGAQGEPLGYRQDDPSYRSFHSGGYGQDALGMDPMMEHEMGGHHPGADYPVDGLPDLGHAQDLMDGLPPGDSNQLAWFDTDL
Description: The relative band intensity was quantified with ImageJ and normalized to GAPDH.
For immunoprecipitation, the cells were lysed in TNE lysis buffer (50 mM Tris-HCl, pH 8.0, 150 mM NaCl, 1% Nonidet P-40, and protease inhibitor cocktail). […] After 18,000×g centrifugation for 10 min, the lysates were immunoprecipitated with specific antibody and protein A-Sepharose beads and then washed the beads with TNE buffer for three times before immunoblotting.

HCT116 cells = assay: Cell proliferation assay (CCK-8), HCT116 cells; format: cell-based; details: 50 μM peptides, 6 days, cell number counted each day
Description: (§1) Equal number of cells (8000–10,000 cells) were seeded in the 24-well plates and then subjected to different treatments. The cell numbers were counted every 24 h with the CCK-8 cell counting kit (Dojindo Molecular Technologies) according to manufacturer’s instructions.

wild-type organoids = assay: Wild-type mouse intestinal organoid culture; format: cell-based; details: 10 μM peptides
Description: Fig. 5 xStAx-VHLL inhibits the growth of wild-type and APC^−/− organoids. a Wild-type organoids were cultured with 10 μM peptides for 4 days. The trypan blue staining at day 4 indicated the dead organoids. Scale bar = 100 μm. […] Relative β-catenin and cleaved caspase3 protein levels were quantified. e Wild-type organoids were cultured with 10 μM peptides for 3 h and harvested for qPCR analysis of Wnt target genes. f APC^−/− organoids were cultured with 50 μM peptides for 4 days. The trypan blue staining at day 4 indicated the dead organoids. Scale bar = 100 μm. […] Relative β-catenin and cleaved caspase3 protein levels were quantified. The relative band intensity was quantified with ImageJ and normalized to GAPDH levels.
Mouse intestinal crypts isolation and organoid culture were performed as previously described. Briefly, mouse intestine was cut longitudinally and washed three times with cold PBS. Villi were carefully scraped away and small pieces (5 mm) of intestine were incubated in 0.5 M EDTA in PBS for 40 min on ice. These pieces were then vigorously suspended in cold PBS and the mixture was passed through 70 μm cell strainer (BD Biosciences). The crypt fraction was enriched through centrifugation (3 min at 300–400 g). Then the crypts were embedded in Matrigel (BD Biosciences) and seeded on 48-well or 24-well plates. The intestinal organoid culture medium consists of Advanced DMEM/F12 supplemented with Penicillin/Streptomycin, GlutaMAX-I, N2, B27 and N-acetylcysteine (Sigma-Aldrich) and combination of growth factors including EGF (50 ng/mL, Invitrogen), Noggin (100 ng/mL, R&D) and R-spondin1 (500 ng/mL). The organoids were treated with proper dilution of peptides in the medium.
Supplementary Fig. S7. xStAx-VHLL restricts Lgr5+ intestinal stem cell
population and cell viability in intestinal organoids.
The organoids derived from the small intestine of Lgr5-GFP mice were treated with
10 μM peptides for 36 h and then collected for CytoFLEX flow cytometry to count
Lgr5+ intestinal stem cells (a) or viable cells (b). Data from 3 independent
(1 picture or pasted object on this page, not shown here)

LoVo cells [4] = assay: Cell proliferation assay (CCK-8), LoVo cells; format: cell-based; details: 6 days
Description: as §1

[5] = 50 μM peptides, 24 h, immunoblot
[6] = Lgr5-GFP organoids, 36 h, flow cytometry

Q: `CC[C@H](C)[C@@H]1NC(=O)[C@@](C)(NC(=O)[C@H](CCCNC(=N)N)NC(=O)[C@@H]2CCCN2C(=O)[C@H](Cc2c[nH]c3ccccc23)NC(=O)[C@H](CCCNC(=N)N)NC(=O)[C@H](CCCNC(=N)N)NC(C)=O)CCCC=CCCC[C@@](C)(C(=O)N[C@@H](Cc2c[nH]cn2)C(=O)N[C@H](C(=O)N[C@@H](CCCNC(=N)N)C(=O)N[C@@H](CCCNC(=N)N)C(=O)N[C@H](C(=O)N[C@@H](Cc2c[nH]c3ccccc23)C(=O)N[C@@H](CCCNC(=N)N)C(=O)NCCCCCC(=O)N[C@@H](C)C(=O)N[C@@H](CC(C)C)C(=O)N[C@@H](C)C(=O)N2CCC[C@H]2C(=O)N[C@@H](Cc2ccc(O)cc2)C(=O)N[C@H](C(=O)N2CCC[C@H]2C(N)=O)[C@@H](C)CC)C(C)C)C(C)C)NC(=O)[C@H](CC(=O)O)NC(=O)[C@H](CC(C)C)NC1=O` [xStAx-VHLL] (Ac-RRWPR[S5]ILD[S5]HVRRVWR[Ahx]ALAPYIP-NH2; staple 6-10; N-terminus and C-terminus assumed) was tested. Which “active β-catenin protein level in small intestine” value (intestinal tumors; 30 mg/kg i.p. 7 times, immunoblot, compared with the vehicle group) did it give?
A: also decreased

Q: What about the intestinal tumor number (intestinal tumors; 11 weeks-old mice, 30 mg/kg i.p. every other day for 14 days (7 times), vs day 0 or DMSO) of the same compound?
A: dramatically reduced tumor number

Q: And the “dose dependence of β-catenin degradation” value (β-catenin [1]; CRC cells (HCT116, LoVo, SW480), indicated concentrations, 24 h)?
A: dose-dependent manner

Q: What about the “β-catenin level after wash-out of the peptide” value (β-catenin [1]; HCT116, 50 μM peptide 24 h, then fresh medium 24 or 48 h) of the same compound?
A: remained low after 24 h

Q: What about the “β-catenin degradation in colorectal cancer cells” value (β-catenin [1]; HCT116, SW480 or LoVo, 50 μM peptides, 24 h, immunoblot) of the same compound?
A: promotes the degradation of β-catenin

Q: And the “β-catenin protein level, MSAB versus xStAx-VHLL” value (β-catenin [1]; HCT116 and SW480, 10 μM MSAB, 24 h)?
A: decreased β-catenin protein to a comparable level

Q: What about the “β-catenin protein level, MSAB versus xStAx-VHLL” value (β-catenin [1]; LoVo, 10 μM MSAB, 24 h) of the same compound?
A: able to reduce the β-catenin protein level

Q: What about the “subcutaneous tumor size and weight” value (LoVo cells [2]; 3 × 10^6 LoVo cells pretreated with 50 μM peptide for 24 h, s.c. injection, 3 weeks, n = 10 mice per group) of the same compound?
A: significantly smaller in size and weight

Q: What about the “β-catenin protein level in tumor extracts” value (LoVo cells [2]; tumors from pretreated LoVo cells, immunoblot, compared with other groups) of the same compound?
A: apparently decreased

Q: And the “Wnt target genes Axin2, Cyclin D1 and Myc in tumors” value (LoVo cells [2]; tumors from pretreated LoVo cells, qPCR)?
A: also decreased

Q: What about the “APC^−/− organoid survival, MSAB versus xStAx-VHLL” value (APC^−/− organoids; 10 μM MSAB or 50 μM xStAx-VHLL, 4 days) of the same compound?
A: strong inhibition

Q: And the “growth of APC^−/− organoids” value (APC^−/− organoids; 50 μM peptide, 4 days)?
A: significantly impeded the growth

Q: What about the “cleaved caspase 3” value (APC^−/− organoids; [5]) of the same compound?
A: increased

Q: What about the β-catenin protein level (APC^−/− organoids; [5]) of the same compound?
A: greatly decreased

Q: What about the “expression of Wnt target genes Axin2, Cyclin D1 and Myc” value (APC^−/− organoids; qPCR) of the same compound?
A: downregulated

Q: And the “β-catenin protein level, MSAB versus xStAx-VHLL” value (β-catenin [3]; 10 μM MSAB, 50 μM xStAx-VHLL (legend: 70 μM, Wnt3a CM), 24 h)?
A: decreased β-catenin protein to a comparable level

Q: What about the β-catenin ubiquitination (β-catenin [3]; 50 μM peptide 24 h, MG132 10 μM 12 h, IP and immunoblot) of the same compound?
A: promoted β-catenin ubiquitination

Q: What about the “time post treatment at which β-catenin degradation started” value (β-catenin [3]; 70 μM peptide and Wnt3a CM, immunoblot time course) of the same compound?
A: 12 h

Q: And the “endogenous β-catenin protein level” value (β-catenin [3]; 70 μM peptide, 24 h, without Wnt3a, immunoblot)?
A: reduced the β-catenin level

Q: What about the “β-catenin protein level in Wnt3a-treated cells” value (β-catenin [3]; 70 μM peptide, Wnt3a CM, 24 h, immunoblot, lower than xStAx) of the same compound?
A: significantly downregulated β-catenin protein level

Q: And the “β-catenin level after wash-out of the drug” value (β-catenin [3]; MSAB 10 μM or xStAx-VHLL 70 μM 24 h, then fresh medium 24 or 48 h)?
A: durable degradation of β-catenin

Q: And the “proliferation of HCT116 cells” value (HCT116 cells)?
A: significantly attenuated the proliferation

Q: What about the “Wnt signaling target genes Lgr5, Axin2, Cyclin D1 and Myc” value (wild-type organoids; 3 h, qPCR) of the same compound?
A: remarkably decreased

Q: And the “cleaved caspase 3 level” value (wild-type organoids; 24 h, immunoblot)?
A: increased the cleaved caspase 3 level

Q: What about the β-catenin protein level (wild-type organoids; 24 h, immunoblot) of the same compound?
A: reduced the β-catenin protein level

Q: What about the “organoid survival and bud formation” value (wild-type organoids; 4 days) of the same compound?
A: obviously impeded organoid survival and bud formation

Q: What about the “Lgr5+ intestinal stem cells” value (wild-type organoids; [6]) of the same compound?
A: reduced

Q: What about the viable cell population (wild-type organoids; [6]) of the same compound?
A: also decreased

Q: What about the “proliferation of LoVo cells” value (LoVo cells [4]; 50 μM peptides, cell number counted each day) of the same compound?
A: significantly attenuated the proliferation

Q: And the “proliferation of LoVo cells, MSAB versus xStAx-VHLL” value (LoVo cells [4]; 1 × 10^4 cells, 10 μM MSAB or 50 μM xStAx-VHLL)?
A: hampered by xStAx-VHLL
